Measurements as given in patent US20030144336A1, “Method of selecting nonsedating H1-antagonists” (priority 2001, published 2003).
Read-outs that look alike come from different tables or passages of the source.

Assays:
P-gp (mdr1a/1b) [1] = target: T1, P-gp (mdr1a/1b) (Mus musculus, UniProt P21447); experiment: in vivo; settings: male, iv, 5 mg/kg
P-gp (mdr1a/1b) [2] = target: T1, P-gp (mdr1a/1b); settings: male, FVB and mdr1a/1b KO, in vivo
MDR1 (P-gp) [3] = target: T2, MDR1 (P-gp) (Homo sapiens, UniProt P08183); experiment: in vitro; settings: MDCK-MDR1
T2 sequence (P08183 whole entry): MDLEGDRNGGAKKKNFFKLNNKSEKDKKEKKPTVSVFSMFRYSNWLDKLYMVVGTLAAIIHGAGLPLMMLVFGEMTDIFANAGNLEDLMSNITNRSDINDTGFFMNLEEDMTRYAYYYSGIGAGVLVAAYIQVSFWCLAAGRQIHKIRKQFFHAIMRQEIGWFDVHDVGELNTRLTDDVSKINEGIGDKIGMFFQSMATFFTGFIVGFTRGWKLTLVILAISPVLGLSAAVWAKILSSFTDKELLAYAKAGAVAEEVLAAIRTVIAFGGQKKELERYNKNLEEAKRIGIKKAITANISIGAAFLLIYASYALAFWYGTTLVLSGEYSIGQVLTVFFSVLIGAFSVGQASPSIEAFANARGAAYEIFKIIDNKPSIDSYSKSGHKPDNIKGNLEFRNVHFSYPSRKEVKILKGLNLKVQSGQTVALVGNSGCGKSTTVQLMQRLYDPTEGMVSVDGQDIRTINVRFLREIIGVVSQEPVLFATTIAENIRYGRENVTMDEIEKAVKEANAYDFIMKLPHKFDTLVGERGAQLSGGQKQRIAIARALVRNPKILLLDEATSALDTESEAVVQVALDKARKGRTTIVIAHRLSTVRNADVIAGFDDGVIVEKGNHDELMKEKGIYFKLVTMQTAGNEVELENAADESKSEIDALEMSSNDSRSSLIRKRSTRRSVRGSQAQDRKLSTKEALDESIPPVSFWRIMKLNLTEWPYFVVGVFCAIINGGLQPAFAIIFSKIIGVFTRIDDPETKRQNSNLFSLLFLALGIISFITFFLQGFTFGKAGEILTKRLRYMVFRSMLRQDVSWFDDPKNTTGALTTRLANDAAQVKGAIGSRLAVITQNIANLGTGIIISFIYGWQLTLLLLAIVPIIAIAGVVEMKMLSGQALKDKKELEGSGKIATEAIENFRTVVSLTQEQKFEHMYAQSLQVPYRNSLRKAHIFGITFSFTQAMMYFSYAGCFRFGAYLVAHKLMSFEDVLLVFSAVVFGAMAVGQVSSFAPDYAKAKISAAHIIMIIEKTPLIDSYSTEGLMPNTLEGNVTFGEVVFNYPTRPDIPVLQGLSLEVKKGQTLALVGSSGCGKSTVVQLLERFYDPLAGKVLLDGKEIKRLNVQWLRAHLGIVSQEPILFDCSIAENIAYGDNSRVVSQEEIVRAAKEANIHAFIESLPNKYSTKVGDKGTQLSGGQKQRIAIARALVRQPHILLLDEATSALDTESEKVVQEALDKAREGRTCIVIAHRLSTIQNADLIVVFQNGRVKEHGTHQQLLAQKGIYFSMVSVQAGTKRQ

in vivo = settings: male, mouse, iv, 5 mg/kg
MDR1 (P-gp) [4] = target: T2, MDR1 (P-gp)
P-gp = settings: literature reports; cited from earlier work
P-gp (mdr1a/1b) [5] = target: T1, P-gp (mdr1a/1b); experiment: Blood-brain distribution of H1-antagonists in WT mice and mdr1a/1b KO mice; settings: WT and KO mice, post i.v. dose
[6] = as above; settings: male, FVB, mouse, brain, iv, 5 mg/kg

T1 sequence (P21447 whole entry): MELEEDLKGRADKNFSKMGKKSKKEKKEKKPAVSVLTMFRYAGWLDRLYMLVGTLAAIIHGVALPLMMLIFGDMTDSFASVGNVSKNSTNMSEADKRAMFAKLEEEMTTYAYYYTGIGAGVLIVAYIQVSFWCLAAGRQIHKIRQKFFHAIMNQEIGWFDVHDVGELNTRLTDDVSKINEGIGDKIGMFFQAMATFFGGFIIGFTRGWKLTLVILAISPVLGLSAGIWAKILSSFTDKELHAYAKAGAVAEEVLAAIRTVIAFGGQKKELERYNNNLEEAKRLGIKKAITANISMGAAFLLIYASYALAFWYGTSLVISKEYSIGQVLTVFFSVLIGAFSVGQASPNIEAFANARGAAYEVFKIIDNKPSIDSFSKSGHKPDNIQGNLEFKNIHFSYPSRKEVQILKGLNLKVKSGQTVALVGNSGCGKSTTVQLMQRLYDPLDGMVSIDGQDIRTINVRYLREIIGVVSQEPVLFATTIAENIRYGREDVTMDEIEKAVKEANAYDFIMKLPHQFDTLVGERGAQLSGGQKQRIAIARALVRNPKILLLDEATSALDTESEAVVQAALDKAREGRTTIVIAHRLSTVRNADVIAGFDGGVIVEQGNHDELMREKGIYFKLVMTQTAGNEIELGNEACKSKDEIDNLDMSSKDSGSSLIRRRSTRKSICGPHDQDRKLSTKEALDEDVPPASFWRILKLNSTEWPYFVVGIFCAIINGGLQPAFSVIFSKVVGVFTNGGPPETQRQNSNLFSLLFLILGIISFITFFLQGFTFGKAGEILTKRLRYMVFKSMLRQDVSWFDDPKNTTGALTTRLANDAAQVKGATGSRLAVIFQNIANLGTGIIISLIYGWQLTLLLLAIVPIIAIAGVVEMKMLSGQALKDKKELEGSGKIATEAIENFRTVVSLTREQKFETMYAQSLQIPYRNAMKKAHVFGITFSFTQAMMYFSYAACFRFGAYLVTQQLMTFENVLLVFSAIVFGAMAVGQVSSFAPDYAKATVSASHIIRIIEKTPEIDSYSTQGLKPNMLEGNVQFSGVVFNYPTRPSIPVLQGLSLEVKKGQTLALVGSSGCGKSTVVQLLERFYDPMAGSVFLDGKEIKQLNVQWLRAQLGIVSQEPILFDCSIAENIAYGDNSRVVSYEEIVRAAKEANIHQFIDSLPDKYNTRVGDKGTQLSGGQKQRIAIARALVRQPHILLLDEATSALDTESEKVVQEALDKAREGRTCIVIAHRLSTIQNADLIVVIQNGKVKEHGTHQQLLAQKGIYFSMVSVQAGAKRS

## Cc1ccc(/C(=C\CN2CCCC2)c2ccccn2)cc1 [Triprolidine]
P-gp (mdr1a/1b) [1]; FVB and mdr1a/1b KO
  Kp: 0.6
P-gp (mdr1a/1b) [1]; FVB
  Kp: 6.2
P-gp (mdr1a/1b) [1]; mdr1a/1b KO
  Kp: 3.5
P-gp (mdr1a/1b) [2]
  AUC ratio of brain tissue to plasma (WT vs. KO comparison): approximately 1
P-gp (mdr1a/1b) [2]; iv
  time of peak brain tissue concentration: 2 min
MDR1 (P-gp) [3]; dog
  Papp A→B at 5 hr, 2 μM: 259 nm/s
  Papp B→A at 5 hr, 2 μM: 245 nm/s
MDR1 (P-gp) [3]; human
  efflux ratio at 5 hr, 2 μM: 0.9
In vivo; FVB and mdr1a/1b KO, in vivo
  Vd: ~2 L/kg
  clearance: 7.14 to 8.04 L/h/kg
In vivo; FVB, in vivo
  Vd: 2 L/kg
  clearance: 7.14 L/h/kg
  half-life: 0.3 h
In vivo; mdr1a/1b KO, in vivo
  Vd: 2.3 L/kg
  clearance: 8.04 L/h/kg
  half-life: 0.5 h
MDR1 (P-gp) [4]; MDCK-MDR1
  MDR1 Substrate?: No
MDR1 (P-gp) [4]; human, MDCK-MDR1, 5 h, 2 µM
  MDR1 Substrate?: not MDR1 substrates

## CC(C)(C)c1ccc(C(O)CCCN2CCC(C(O)(c3ccccc3)c3ccccc3)CC2)cc1 (stereo not drawn) [terfenadine]
P-gp
  P-gp substrate or inhibitor status: an inhibitor of and a substrate for P-gp in vitro

## OCCOCCN1CCN(C(c2ccccc2)c2ccc(Cl)cc2)CC1 (stereo not drawn) [Hydroxyzine]
P-gp (mdr1a/1b) [5]
  time of peak brain tissue concentration: 2 min
[6]
  concentration at 2 min: ~8 µg/mL
P-gp (mdr1a/1b) [1]; FVB and mdr1a/1b KO
  Kp: 1.2
P-gp (mdr1a/1b) [1]; FVB
  Kp: 3.8
P-gp (mdr1a/1b) [1]; mdr1a/1b KO
  Kp: 4.8
P-gp (mdr1a/1b) [2]
  AUC ratio of brain tissue to plasma (WT vs. KO comparison): approximately 1
In vivo; FVB and mdr1a/1b KO, plasma
  Vd: 2.4 to 3.7 L/kg
  clearance: 4.2 to 4.8 L/h/kg
In vivo; FVB, plasma
  Vd: 3.7 L/kg
  clearance: 4.8 L/h/kg
  half-life: 1.7 h
In vivo; mdr1a/1b KO, plasma
  Vd: 2.4 L/kg
  clearance: 4.2 L/h/kg
  half-life: 2.2 h
